Measurements reported in US10561646B2, “EGFR inhibitor and pharmaceutically acceptable salt and polymorph thereof, and use thereof” (SHANGHAI HAIYAN PHARMACEUTICAL TECHNOLOGY CO., LTD., priority 2015, dated 2020).
“Also recorded” adds a separate entry of the source. Read-outs that look alike come from different tables or passages of the source.

Tests used:
[1] = In vivo test of rats, pharmacokinetics after oral gavage; parameters: species or system SD rats; conditions: rat, oral gavage 5 mg/kg; for Area under the curve AUC / Half-life T1/2: plasma
[2] = Solid phase stability experiment (XRPD, HPLC, TGA after one week); assay type: physicochemical; conditions: for Purity (%): HPLC; for Weight loss (%): TGA; for crystal transition: XRPD
Method: An appropriate amount of samples were weighed and stored at 25° C./60% RH and 40° C./75% RH (unsealed), respectively. Another set of samples were sealed and kept as a control at 5° C. at the same time. All samples were characterized by XRPD, HPLC and TGA one week later, and the crystal form, purity and weight loss were tested.

[3] = Hygroscopicity / DVS test; assay type: physicochemical; conditions: for moisture absorbed: humidity increased to 80% RH at 25° C.
Method: Dynamic Vapor Sorption (DVS) curve: collected on DVS Intrinsic SMS (Surface Measurement Systems). The relative humidity at 25° C. is corrected with the deliquescent points of LiCl, Mg (NO3)2 and KCl.
The rate of weight loss increases when the humidity is reduced to 20% RH at 25° C.
The DVS test was performed on crystal form II sample at a constant temperature of 25° C.
In order to assess the stability of anhydrous crystal form I and hydrate crystal form II under different humidity conditions, DVS assay was performed on samples of anhydrous crystal form I and hydrate crystal form II at constant 25° C.
When the humidity reaches 20% RH, a turning point appears in the isothermal map of DVS, which is caused by the transition from anhydrous crystal form I to hydrate form II according to the XRPD comparison of the samples before and after the DVS assay shown in FIG. 32. The actual moisture absorbed is less than the moisture content of crystal form II sample due to the slow solid phase transition rate.

[4] = Suspension competition test between crystal forms; assay type: physicochemical; conditions: for stability relationship crystal form II / IV: acetone/H2O (aw 0.6), about 5 minutes
Method: Firstly, the suspension of maleate crystal form C-1 in acetone was prepared at two temperature respectively, and filtered after balancing for about one hour.
In order to further confirm the stability relationship between anhydrous crystal form I and hydrate crystal form II under different water activity conditions at room temperature, the mixture of crystal form I and crystal form II was suspended and stirred in acetone/H2O solvent system with different water activities (aw—0.2/0.4/0.6/0.8).
In order to study the stability relationship between different hydrate crystal form II and IV at room temperature to 50° C., a suspension competition test was set up in aqueous system at room temperature and 50° C. respectively. Firstly, the free base suspension in acetone/H2O (aw—0.6) was prepared at room temperature and 50° C. respectively. After balancing at the corresponding temperature for about 1 hour, the suspension was filtered to obtain the near saturated solution at the corresponding temperature. An equal quantity of crystal form II and IV samples (about 6 mg each) was added to 0.8 ml of saturated solution to form a suspension which was magnetically stirred (−800 rpm) at room temperature and 50° C. for about 5 minutes, and sampled for XRPD test.

NIH3T3 cells = assay: Cytotoxicity against NIH3T3 cells, MTT assay; assay type: cell-based; conditions: Mus musculus, 72 h incubation
H1975 cells [5] = assay: Activities of EGFR T790M inhibitor on cells by ELISA, H1975; assay type: cell-based; conditions: Homo sapiens, NCI-H1975
H1975 cells [6] = assay: Cytostatic activity by MTT method, H1975; assay type: cell-based
A431 cells [7] = assay: Cytostatic activity by MTT method, A431; assay type: cell-based
A431 cells [8] = assay: Activities on cells by ELISA, A431 (EGF stimulated); assay type: cell-based; conditions: Homo sapiens, A-431
[9] = Storage of crystal form C-1 at 80° C. for 24 hours (XRPD, HPLC); assay type: physicochemical
[10] = room temperature, crude solubility
[11] = Dynamic solubility experiment in water, SGF, FaSSIF, FeSSIF; assay type: physicochemical; conditions: thermodynamic from solid, room temperature
EGFR WT kinase = molecular target: T1, EGFR WT kinase (Homo sapiens, UniProt P00533); assay: Wild type EGFR kinase inhibition test (z-lyte); assay type: biochemical
T1 construct: purchased Invitrogen PV3872
T1 sequence (P00533 25-1210): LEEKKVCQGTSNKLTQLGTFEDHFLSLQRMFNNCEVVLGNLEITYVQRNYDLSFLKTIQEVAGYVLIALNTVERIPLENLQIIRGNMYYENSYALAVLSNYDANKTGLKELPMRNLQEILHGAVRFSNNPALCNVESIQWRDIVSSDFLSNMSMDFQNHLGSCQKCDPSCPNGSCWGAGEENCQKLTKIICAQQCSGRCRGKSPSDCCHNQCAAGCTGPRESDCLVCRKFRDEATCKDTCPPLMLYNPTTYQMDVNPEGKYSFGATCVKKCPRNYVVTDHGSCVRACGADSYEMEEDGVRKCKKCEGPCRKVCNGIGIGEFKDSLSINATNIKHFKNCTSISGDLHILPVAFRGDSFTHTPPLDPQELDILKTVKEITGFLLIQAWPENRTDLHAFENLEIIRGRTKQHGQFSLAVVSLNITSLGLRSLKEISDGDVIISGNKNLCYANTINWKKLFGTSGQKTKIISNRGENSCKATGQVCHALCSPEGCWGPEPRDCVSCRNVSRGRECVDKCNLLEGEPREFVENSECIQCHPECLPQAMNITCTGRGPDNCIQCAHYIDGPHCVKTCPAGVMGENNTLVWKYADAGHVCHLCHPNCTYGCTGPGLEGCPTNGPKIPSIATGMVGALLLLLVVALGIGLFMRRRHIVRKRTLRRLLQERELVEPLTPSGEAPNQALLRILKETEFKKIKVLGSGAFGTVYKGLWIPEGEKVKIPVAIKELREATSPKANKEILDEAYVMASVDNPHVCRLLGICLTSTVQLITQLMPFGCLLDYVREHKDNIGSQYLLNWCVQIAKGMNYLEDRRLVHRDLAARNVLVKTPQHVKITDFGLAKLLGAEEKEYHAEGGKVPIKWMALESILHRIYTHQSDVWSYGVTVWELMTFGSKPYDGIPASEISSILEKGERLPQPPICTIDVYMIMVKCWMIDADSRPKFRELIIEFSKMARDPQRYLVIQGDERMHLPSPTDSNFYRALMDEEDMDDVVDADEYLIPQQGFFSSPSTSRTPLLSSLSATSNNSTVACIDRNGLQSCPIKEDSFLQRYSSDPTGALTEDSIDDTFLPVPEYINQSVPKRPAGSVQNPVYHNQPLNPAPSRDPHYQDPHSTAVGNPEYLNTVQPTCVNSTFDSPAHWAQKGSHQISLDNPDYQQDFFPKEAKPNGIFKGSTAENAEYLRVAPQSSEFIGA

For `C=CC(=O)Nc1cc(Nc2ncc(F)c(-c3cnn(C)c3)n2)c(OC)cc1N1CCC(N(C)C)CC1.Cl` [crystal form A], the “Maximum plasma concentration Cmax” value [1] was 0.0933 µg/mL, the “Area under the curve AUC” value [1] was 1.379 µg·h/mL and the “Half-life T1/2” value [1] was 7.44 h. The “Purity (%)” value ([2]; 5° C. (control), sealed) was 99.45%, the “Weight loss (%)” value ([2]; 5° C. (control), sealed) was 3.0% and the “Weight loss (%)” value ([2]; 25° C./60% RH, unsealed) was 4.3%. The crystal transition ([2]; 25° C./60% RH, unsealed) was “no”, the “Weight loss (%)” value ([2]; 40° C./75% RH, unsealed) was 3.4% and the crystal transition ([2]; 40° C./75% RH, unsealed) was “no”.
In the case of `C=CC(=O)Nc1cc(Nc2ncc(F)c(-c3cnn(C)c3)n2)c(OC)cc1N1CCC(N(C)C)CC1` [crystal form II], the “weight loss in DVS” value ([3]; 25° C., humidity above 10% RH) was “essentially no weight loss; also recorded: almost no weight loss”, the water absorbed ([3]; DVS, 25° C., at 95% RH, after dewatering below 10% RH) was 6.9% and the “stability relationship crystal form II / IV” value ([4]; room temperature and 50° C.) was “more stable than hydrate crystal form IV”. For the same molecule, the “stability relationship crystal form I / II” value ([4]; acetone/H2O, aw 0.2/0.4/0.6/0.8, room temperature, three days) was “more stable”.
Molecule `C=CC(=O)Nc1cc(Nc2nccc(-c3cn(C)c4ccccc34)n2)c(OC)cc1N(C)CCN(C)C` [comparative compound 1] has an IC50 (NIH3T3 cells) of 3550 nM, an IC50 (H1975 cells [5]) of 29 nM and an IC50 (H1975 cells [6]; Homo sapiens, NCI-H1975, 72 h incubation) of 13 nM. It also gave an IC50 (A431 cells [7]; Homo sapiens, A-431, 72 h incubation) of […] and an IC50 (A431 cells [8]) of […].
For `C=CC(=O)Nc1cc(Nc2ncc(F)c(-c3cnn(C)c3)n2)c(OC)cc1N1CCC(N(C)C)CC1.O=C(O)/C=C\C(=O)O` [crystal form C-1], the “crystal form before and after the DVS test (XRPD)” value ([3]; 25° C.) was “did not change”, the hygroscopicity ([3]; DVS, 25° C.) was “slightly hygroscopic” and the moisture absorbed ([3]; DVS) was 0.3%. The “Maximum plasma concentration Cmax” value [1] was 0.0863 µg/mL, the “Area under the curve AUC” value [1] was 1.233 µg·h/mL and the “Half-life T1/2” value [1] was 7.92 h. For the same molecule, the “Purity (%)” value ([2]; 5° C. (control), sealed) was 99.39%, the “Weight loss (%)” value ([2]; 5° C. (control), sealed) was 0.1% and the “Weight loss (%)” value ([2]; 25° C./60% RH, unsealed) was 1.2%. For the same molecule, the crystal transition ([2]; 25° C./60% RH, unsealed) was “no”, the “Weight loss (%)” value ([2]; 40° C./75% RH, unsealed) was 1.3% and the crystal transition ([2]; 40° C./75% RH, unsealed) was “no”. For the same molecule, the “stability relationship crystal form C-1 / C-2” value ([4]; acetone, room temperature and 50° C., stirring 5 minutes) was “higher thermodynamic stability than crystal form C-2” and the “crystal form and HPLC purity before and after the test” value [9] was “did not change”.
With `C=CC(=O)Nc1cc(Nc2ncc(F)c(-c3cnn(C)c3)n2)c(OC)cc1N1CCC(N(C)C)CC1` [crystal form IV] the “stability relationship crystal form II / IV” value ([4]; room temperature and 50° C.) was “quickly converted to hydrate crystal form II”.
For `C=CC(=O)Nc1cc(Nc2ncc(F)c(-c3cnn(C)c3)n2)c(OC)cc1N1CCC(N(C)C)CC1` [crystal form I], the “humidity at turning point of DVS isotherm (transition from anhydrous crystal form I to hydrate form II)” value ([3]; 25° C.) was 20 % RH.
`CN(C)C/C=C/C(=O)Nc1cc2c(Nc3ccc(F)c(Cl)c3)ncnc2cc1O[C@H]1CCOC1` [BIBW2992] gave an IC50 (NIH3T3 cells) of 2750 nM.
In the case of `C=CC(=O)Nc1cc(Nc2ncc(F)c(-c3cnn(C)c3)n2)c(OC)cc1N1CCC(N(C)C)CC1.O=C(O)CCCCC(=O)O` [crystal form E], the “crystal form before and after the DVS test (XRPD)” value ([3]; 25° C.) was “did not change”, the hygroscopicity ([3]; DVS, 25° C.) was “slightly hygroscopic” and the moisture absorbed ([3]; DVS) was 0.5%. The “Maximum plasma concentration Cmax” value [1] was 0.117 µg/mL, the “Area under the curve AUC” value [1] was 1.66 µg·h/mL and the “Half-life T1/2” value [1] was 7.46 h. For the same molecule, the “Purity (%)” value ([2]; 5° C. (control), sealed) was 99.30%, the “Weight loss (%)” value ([2]; 5° C. (control), sealed) was 0.1% and the “Weight loss (%)” value ([2]; 25° C./60% RH, unsealed) was 0.5%. For the same molecule, the crystal transition ([2]; 25° C./60% RH, unsealed) was “no”, the “Weight loss (%)” value ([2]; 40° C./75% RH, unsealed) was 0.4% and the crystal transition ([2]; 40° C./75% RH, unsealed) was “no”.
With maleate the “Solubility S” value ([10]; 1,4-dioxane) was “S < 1.0 mg/ml”, the “Solubility S” value ([10]; 2-methyltetrahydrofuran) was “S < 0.9 mg/ml” and the “Solubility S” value ([10]; N,N-dimethylacetamide) was “S > 20.0 mg/ml”. The “Solubility S” value ([10]; N-methylpyrrolidone) was “S > 23.0 mg/ml”, the “Solubility S” value ([10]; acetone) was “S < 1.1 mg/ml” and the “Solubility S” value ([10]; dimethyl sulfoxide) was “S > 22.0 mg/ml”. The “Solubility S” value ([10]; ethanol) was “S < 1.1 mg/ml”, the “Solubility S” value ([10]; ethyl acetate) was “S < 0.9 mg/ml” and the “Solubility S” value ([10]; isopropanol) was “S < 0.9 mg/ml”. For the same molecule, the “Solubility S” value ([10]; isopropyl acetate) was “S < 1.0 mg/ml”, the “Solubility S” value ([10]; methyl isobutyl ketone) was “S < 0.9 mg/ml” and the “Solubility S” value ([10]; methyl tert-butyl ether) was “S < 1.0 mg/ml”. For the same molecule, the “Solubility S” value ([10]; n-hexane) was “S < 1.0 mg/ml”, the “Solubility S” value ([10]; tetrahydrofuran) was “S < 1.2 mg/ml” and the “Solubility S” value ([10]; toluene) was “S < 1.1 mg/ml”.
For `C=CC(=O)Nc1cc(Nc2ncc(F)c(-c3cnn(C)c3)n2)c(OC)cc1N1CCC(N(C)C)CC1.O=P(O)(O)O` [crystal form B], the “crystal form before and after the DVS test (XRPD)” value ([3]; 25° C.) was “does not change”, the “Maximum plasma concentration Cmax” value [1] was 0.0932 µg/mL and the “Area under the curve AUC” value [1] was 1.265 µg·h/mL. The “Half-life T1/2” value [1] was 7.04 h, the “Purity (%)” value ([2]; 5° C. (control), sealed) was 99.56% and the “Weight loss (%)” value ([2]; 5° C. (control), sealed) was 4.1%. For the same molecule, the “Weight loss (%)” value ([2]; 25° C./60% RH, unsealed) was 4.6%, the crystal transition ([2]; 25° C./60% RH, unsealed) was “no” and the “Weight loss (%)” value ([2]; 40° C./75% RH, unsealed) was 4.5%. For the same molecule, the crystal transition ([2]; 40° C./75% RH, unsealed) was “no”.
With `C=CC(=O)Nc1cc(Nc2ncc(F)c(-c3cnn(C)c3)n2)c(OC)cc1N1CCC(N(C)C)CC1` [the free base of compound of formula X, N-(2-(4-(dimethylamino)piperidin-1-yl)-5-(5-fluoro-4-(1-methyl-1H-pyrazol-4-yl)pyrimidin-2-ylamino)-4-methoxyphenyl)acrylamide] the “Purity (%)” value ([2]; 5° C. (control), sealed) was 99.23%, the “Weight loss (%)” value ([2]; 5° C. (control), sealed) was 5.1% and the “Weight loss (%)” value ([2]; 25° C./60% RH, unsealed) was 5.3%. For the same molecule, the crystal transition ([2]; 25° C./60% RH, unsealed) was “no”, the “Weight loss (%)” value ([2]; 40° C./75% RH, unsealed) was 6.2% and the crystal transition ([2]; 40° C./75% RH, unsealed) was “no”. The solubility at 1 h ([11]; fasting state simulated intestinal fluid (FaSSIF), FaSSIF, after 1 hour of solid dispersion) was 4.2 mg/mL, the solubility at 1 h ([11]; feeding state simulated intestinal fluid (FeSSIF), FeSSIF, after 1 hour of solid dispersion) was at least 10.5 mg/mL and the solubility at 1 h ([11]; simulated gastric fluid (SGF), simulated gastric fluid, SGF, after 1 hour of solid dispersion) was at least 8.5 mg/mL. The solubility at 1 h ([11]; fourth solvent (head is an image; water), after 1 hour) was 0.01 mg/mL, the “inhibitory activities against EGFR mutant cells (H1975 cells), in words” value (H1975 cells [6]) was “strong inhibitory activities” and the “inhibitory activities against EGFR wild-type cells (A431 cells), in words” value (A431 cells [7]) was “weak inhibitory activities”. For the same molecule, the “inhibitory activities against EGFR wild-type enzyme, in words” value (EGFR WT kinase) was “weak inhibitory activities”.
With `C=CC(=O)Nc1cc(Nc2ncc(F)c(-c3cnn(C)c3)n2)c(OC)cc1N1CCC(N(C)C)CC1.O=C(O)C[C@H](O)C(=O)O` [crystal form D] the “Maximum plasma concentration Cmax” value [1] was 0.0844 µg/mL, the “Area under the curve AUC” value [1] was 1.202 µg·h/mL and the “Half-life T1/2” value [1] was 6.63 h. The “Purity (%)” value ([2]; 5° C. (control), sealed) was 99.37%, the “Weight loss (%)” value ([2]; 5° C. (control), sealed) was 1.6% and the “Weight loss (%)” value ([2]; 25° C./60% RH, unsealed) was 1.3%. For the same molecule, the crystal transition ([2]; 25° C./60% RH, unsealed) was “no”, the “Weight loss (%)” value ([2]; 40° C./75% RH, unsealed) was 1.2% and the crystal transition ([2]; 40° C./75% RH, unsealed) was “no”.
